Results as given in patent US20130205449A1, “Methods and Compositions for Production of Triploid Sterile Plants” (University of Connecticut, priority 2011, published 2013).

Columns and labels:
Assay type in all cases: cell-based, Euonymus alatus
[1] = test system: immature endosperm-derived calli of E. alatus ‘Compactus’; experiment: Shoot bud induction from immature endosperm-derived calli; conditions: zeatin at 9.13 or 18.26 μM, kinetin at 9.30 or 18.60 μM, in the presence of 0.49 μM IBA
Method: (§1) Except for rooting, all the media described herein were composed of MS salts (Murashige and Skoog, 1962) with 100 mg/L myo-inositol, 2.0 mg/L glycine, 1.0 mg/L thiamine-HCl, 0.5 mg/L nicotinic acid, 0.5 mg/L pyridoxine-HCl, 0.3 g/L casein hydrolysate, 0.5 g/L 2-(Nmorpholino) ethanesulfonic acid, 30.0 g/L sucrose, and 7.0 g/L agar. The pH of all culture media was adjusted to 5.8 with KOH or HCl before addition of agar. All media were autoclaved at 121° C. for 20 minutes, and all the cultures, except for those specifically mentioned, were maintained at 23±2° C. under 35 to 45 μmol/m^2s light provided by white cool fluorescent tube lamps over a 16-hour photoperiod.
After 12 weeks of culture, compact, greenish calli formed on six callus induction media supplemented with 2.22, 4.44, or 8.88 μM BA and 2.69 or 5.38 μM NAA were cut into pieces (approximately 0.5 cm×0.5 cm in size) and transferred to the petri dishes containing shoot induction media supplemented with 4.44 or 13.32 μM BA, 9.13 or 18.26 μM zeatin, and 9.30 or 18.60 μM kinetin plus 0.49 μM IBA or 0.57 μM indole-3-acetic acid (IAA). Callus segments also were cultured on hormone free MS medium as a control. […] Bud (shoot bud) formation was recorded at Week 8 of culture. Bud induction rates were calculated by dividing the number of calli forming shoot buds by the number of calli cultured. […]

[2] = test system: E. alatus ‘Compactus’ immature endosperm explants; experiment: Callus induction from immature endosperm explants; conditions: in combination with the same concentration of BA
Method: as §1
Endosperm tissues with seedcoats and embryos completely removed were used for triploid callus induction (FIG. 1A). […]
Seed coats and embryos were removed, and the immature endosperm explants were cultured in disposable petri dishes (90×20 mm) containing MS medium supplemented with different combinations of four concentrations of BA (2.22, 4.44, 8.88, and 17.76 μM), three concentrations of NAA (2.69, 5.38, and 10.76 μM), and two concentrations of 2,4-dichlorophenoxy-acetic acid (2,4-D) (2.26 and 9.04 μM) to induce callus formation. […] Callus formation data were recorded at Week 12 of culture, and mean number of immature endosperm explants forming calli was calculated based on three replicates for each treatment. […]

[3] = test system: shoots from embryo or endosperm-derived calli; experiment: Rooting of regenerated shoots
Method: After shoot buds were formed from embryo or endosperm-derived calli, they were transferred together with their callus explants into Magenta boxes containing the MS medium supplemented with 4.44 μM BA and 0.49 μM IBA for further growth. When the shoots grew to 1 to 2 cm in height, they were excised from callus tissues and cultured on root induction Medium I, which included half strength WPM (Lloyd and McCown, 1980, Proc. Intl. Plant Prop. Soc., 30:421-427) with 2% sucrose, 0.04% ammonium nitrate, 0.4% agar, 0.14% phytagel (a blended agar and phytagel medium was used to produce a totally transparent medium so that initiation and growth of roots could be easily monitored), and 4.9 μM IBA (Clements, 2007, In vitro induction of polyploidy, rooting, and overcoming the dormancy limitations of Euonymus alatus ‘Compactus,” MS Thesis, Univ. of. Conn., p. 536)). Two weeks later, the shoots were transferred onto rooting Medium II (Clements, 2007), which was IBA-free rooting Medium I with 2 g/L activated charcoal (Kang et al., 2009). The pH of the rooting media was adjusted to 5.2 with KOH or HCl before the addition of gelling agents. The root cultures were transferred to fresh medium every four weeks. […]

For C/C(=C\CNc1ncnc2[nH]cnc12)CO [zeatin], the Bud formation [1] was “failed to induce bud formation”.

In the case of O=C(O)COc1ccc(Cl)cc1Cl [2,4-D, 2,4-dichlorophenoxy-acetic acid], the “Effectiveness in callus induction compared with NAA” value [2] is reported as “less effective in callus induction than NAA”.

In the case of c1coc(CNc2ncnc3[nH]cnc23)c1 [kinetin], the Bud formation [1] is reported as “failed to induce bud formation”.

With O=C(O)CCCc1c[nH]c2ccccc12 [IBA, indole-3-butyric acid] the “Shoots developed into healthy plants with well-developed roots” value ([3]; Medium I with 4.9 μM IBA two weeks, then IBA-free Medium II with 2 g/L activated charcoal, within 10 weeks of culture) was 85% and the Shoots rooted ([3]; WPM with 4.9 μM IBA for two weeks, then hormone-free WPM with 2.0 g/L activated charcoal for four weeks) was “Eighty five percent”.
